Biological target: T1, Dopamine beta hydroxylase (Homo sapiens, UniProt P09172)
T1 construct: 125 μl of plasma; tissue Instituto Português do Sangue Transplantação; host or cells: human plasma from healthy donors
T1 sequence (P09172 40-617 limits assumed): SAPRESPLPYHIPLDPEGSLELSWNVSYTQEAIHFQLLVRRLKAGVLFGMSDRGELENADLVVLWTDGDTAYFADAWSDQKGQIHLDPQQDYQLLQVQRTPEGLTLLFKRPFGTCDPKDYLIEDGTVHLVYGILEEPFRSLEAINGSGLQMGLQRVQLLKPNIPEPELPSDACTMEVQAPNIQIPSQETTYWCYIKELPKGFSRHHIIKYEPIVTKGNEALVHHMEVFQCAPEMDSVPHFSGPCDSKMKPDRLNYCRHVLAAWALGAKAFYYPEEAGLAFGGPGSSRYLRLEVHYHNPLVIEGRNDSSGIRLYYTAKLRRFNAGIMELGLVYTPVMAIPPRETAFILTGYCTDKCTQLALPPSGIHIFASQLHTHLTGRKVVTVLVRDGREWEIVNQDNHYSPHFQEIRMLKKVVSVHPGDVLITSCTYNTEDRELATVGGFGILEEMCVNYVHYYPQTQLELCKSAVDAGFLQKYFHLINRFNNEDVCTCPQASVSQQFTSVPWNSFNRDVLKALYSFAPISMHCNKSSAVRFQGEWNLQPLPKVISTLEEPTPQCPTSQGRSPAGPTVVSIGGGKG
Assay: Dopamine beta hydroxylase activity in human plasma
Type: biochemical
Settings: for Plasma (0.01 μM), activity in % of control: inhibitor 0.01 μM; for Plasma (0.1 μM), activity in % of control: inhibitor 0.1 μM; for Plasma (1 μM), activity in % of control: inhibitor 1 μM
Outline: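 Healthy-donor human plasma pre-incubated 10 min at 37° C with compound at final 10, 100 or 1000 nM in pH 5.0 acetate buffer with ascorbate, fumarate, pargyline, N-ethylmaleimide, catalase and copper sulfate. Tyramine substrate then added for 45 min; octopamine formed was isolated by SCX cartridge, periodate-converted and read at 330 nm; activity given as % control.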

Row | Plasma (0.01 μM), activity in % of control | Plasma (0.1 μM), activity in % of control | Structure (SMILES) | Plasma (1 μM), activity in % of control
1 | 86.0 % of control | 60.1 % of control | O=C(Cc1[nH]c(=S)n2c1C[C@H](c1c(F)c(F)cc(F)c1F)C2)N[C@H]1CCOC1 [Example 369, 2-((R)-6-(2,3,5,6-tetrafluorophenyl)-3-thioxo-2,5,6,7-tetrahydro-3H-pyrrolo[1,2-c]imidazol-1-yl)-N—((S)-tetrahydrofuran-3-yl)acetamide] | –
2 | 93.2 % of control | 76.1 % of control | O=C(Cc1[nH]c(=S)n2c1C[C@H](c1c(F)ccc(Br)c1F)C2)N1CCOCC1 [Example 141, (R)-2-(6-(3-bromo-2,6-difluorophenyl)-3-thioxo-2,5,6,7-tetrahydro-3H-pyrrolo[1,2-c]imidazol-1-yl)-1-morpholinoethan-1-one] | –
3 | – | 90.8 % of control | O=C(Cc1[nH]c(=S)n2c1C[C@H](c1c(F)c(F)cc(F)c1F)C2)NCCO [Example 72, (R)—N-(2-hydroxyethyl)-2-(6-(2,3,5,6-tetrafluorophenyl)-3-thioxo-2,5,6,7-tetrahydro-3H-pyrrolo[1,2-c]imidazol-1-yl)acetamide] | 28.9 % of control
4 | 70.8 % of control | 13.0 % of control | CC(C)(C)OC(=O)N1CCC[C@@H]1CNC(=O)Cc1[nH]c(=S)n2c1C[C@@H](c1c(F)ccc(Br)c1F)C2 [Example 122, tert-butyl (R)-2-((2-((S)-6-(3-bromo-2,6-difluorophenyl)-3-thioxo-2,5,6,7-tetrahydro-3H-pyrrolo[1,2-c]imidazol-1-yl)acetamido)methyl)pyrrolidine-1-carboxylate] | –
5 | 83.8 % of control | 40.7 % of control | Cn1c(CC(=O)NCC2CCCO2)c2n(c1=S)C[C@@H](c1c(F)c(F)cc(F)c1F)C2 (stereo in doubt) [Example 391, 2-((R)-2-methyl-6-(2,3,5,6-tetrafluorophenyl)-3-thioxo-2,5,6,7-tetrahydro-3H-pyrrolo[1,2-c]imidazol-1-yl)-N—(((R)-tetrahydrofuran-2-yl)methyl)acetamide] | –
6 | 90.8 % of control | 55.8 % of control | Cn1c(CCC(=O)N2CCC[C@H]2CO)c2n(c1=S)C[C@@H](c1c(F)ccc(F)c1F)C2 [Example 267, 1-((S)-2-(hydroxymethyl)pyrrolidin-1-yl)-3-((R)-2-methyl-3-thioxo-6-(2,3,6-trifluorophenyl)-2,5,6,7-tetrahydro-3H-pyrrolo[1,2-c]imidazol-1-yl)propan-1-one] | –
7 | 95.4 % of control | 49.0 % of control | Cn1c(CC(=O)NC2COC2)c2n(c1=S)C[C@@H](c1c(F)ccc(F)c1F)C2 [Example 414, (R)-2-(2-methyl-3-thioxo-6-(2,3,6-trifluorophenyl)-2,5,6,7-tetrahydro-3H-pyrrolo[1,2-c]imidazol-1-yl)-N-(oxetan-3-yl)acetamide] | –
8 | 87.2 % of control | 31.3 % of control | O=C(Cc1[nH]c(=S)n2c1C[C@@H](c1c(F)ccc(Cl)c1F)C2)NCCn1cccn1 [Example 162, (S)—N-(2-(1H-pyrazol-1-yl)ethyl)-2-(6-(3-chloro-2,6-difluorophenyl)-3-thioxo-2,5,6,7-tetrahydro-3H-pyrrolo[1,2-c]imidazol-1-yl)acetamide] | –
9 | 72.5 % of control | 29.1 % of control | O=C(Cc1[nH]c(=S)n2c1C[C@H](c1c(F)c(F)cc(F)c1F)C2)NC1CCCCC1O (stereo partly drawn) [Example 29, N-(2-hydroxycyclohexyl)-2-((R)-6-(2,3,5,6-tetrafluorophenyl)-3-thioxo-2,5,6,7-tetrahydro-3H-pyrrolo[1,2-c]imidazol-1-yl)acetamide] | –
10 | 104.5 % of control | 43.4 % of control | CN(C(=O)Cc1[nH]c(=S)n2c1C[C@@H](c1c(F)ccc(Cl)c1F)C2)C1CCOC1 (stereo partly drawn) [Example 384, 2-((S)-6-(3-chloro-2,6-difluorophenyl)-3-thioxo-2,5,6,7-tetrahydro-3H-pyrrolo[1,2-c]imidazol-1-yl)-N-methyl-N-(tetrahydrofuran-3-yl)acetamide] | –
11 | 104.2 % of control | 78.6 % of control | Cn1c(CC(=O)N2CCOCC2)c2n(c1=S)C[C@H](c1c(F)ccc(F)c1F)C2 [Example 411, (S)-2-(2-methyl-3-thioxo-6-(2,3,6-trifluorophenyl)-2,5,6,7-tetrahydro-3H-pyrrolo[1,2-c]imidazol-1-yl)-1-morpholinoethan-1-one] | –
12 | 84.3 % of control | 50.9 % of control | N#CCNC(=O)Cc1[nH]c(=S)n2c1C[C@H](c1c(F)ccc(Br)c1F)C2 [Example 159, (R)-2-(6-(3-bromo-2,6-difluorophenyl)-3-thioxo-2,5,6,7-tetrahydro-3H-pyrrolo[1,2-c]imidazol-1-yl)-N-(cyanomethyl)acetamide] | –

More lines, now with the values behind:

Row | Structure (SMILES) | Plasma (0.01 μM), activity in % of control | Plasma (0.1 μM), activity in % of control | Plasma (1 μM), activity in % of control
13 | CN(C(=O)Cc1c2n(c(=S)n1C)C[C@@]1(c3cc(Cl)ccc3F)C[C@@H]21)C1CCOCC1 [Example 434, 2-((5aS,6aR)-5a-(5-chloro-2-fluorophenyl)-2-methyl-3-thioxo-2,3,5,5a,6,6a-hexahydrocyclopropa[3,4]pyrrolo[1,2-c]imidazol-1-yl)-N-methyl-N-(tetrahydro-2H-pyran-4-yl)acetamide] | 52.5 % of control | 8.5 % of control | –
14 | CS(=O)(=O)NC(=O)Cc1[nH]c(=S)n2c1C[C@H](c1c(F)c(F)cc(F)c1F)C2 [Example 23, (R)—N-(methylsulfonyl)-2-(6-(2,3,5,6-tetrafluorophenyl)-3-thioxo-3,5,6,7-tetrahydro-2H-pyrrolo[1,2-c]imidazol-1-yl)acetamide] | – | 56.6 % of control | 8.8 % of control
15 | Cn1cc(NC(=O)Cc2c3n(c(=S)n2C)C[C@H](c2c(F)ccc(Cl)c2F)C3)cn1 [Example 350, (S)-2-(6-(3-chloro-2,6-difluorophenyl)-2-methyl-3-thioxo-2,5,6,7-tetrahydro-3H-pyrrolo[1,2-c]imidazol-1-yl)-N-(1-methyl-1H-pyrazol-4-yl)acetamide] | 85.7 % of control | 28.2 % of control | –
16 | CN(CCO)C(=O)Cc1c2n(c(=S)n1C)C[C@@H](c1c(F)ccc(F)c1F)C2 [Example 293, (R)—N-(2-hydroxyethyl)-N-methyl-2-(2-methyl-3-thioxo-6-(2,3,6-trifluorophenyl)-2,5,6,7-tetrahydro-3H-pyrrolo[1,2-c]imidazol-1-yl)acetamide] | 104.8 % of control | 86.0 % of control | –
17 | CN(C(=O)Cc1c2n(c(=S)n1C)C[C@@]1(c3c(F)ccc(Cl)c3F)C[C@@H]21)C1CCOC1 (stereo partly drawn) [Example 442, 2-((5aS,6aR)-5a-(3-chloro-2,6-difluorophenyl)-2-methyl-3-thioxo-2,3,5,5a,6,6a-hexahydrocyclopropa[3,4]pyrrolo[1,2-c]imidazol-1-yl)-N-methyl-N-(tetrahydrofuran-3-yl)acetamide] | 43.6 % of control | 10.0 % of control | –
18 | Cn1c(CC(=O)N2CCOCC2)c2n(c1=S)C[C@@]1(c3cc(Cl)ccc3F)C[C@@H]21 [Example 422, 2-((5aS,6aR)-5a-(5-chloro-2-fluorophenyl)-2-methyl-3-thioxo-2,3,5,5a,6,6a-hexahydrocyclopropa[3,4]pyrrolo[1,2-c]imidazol-1-yl)-1-morpholinoethan-1-one] | 68.1 % of control | 23.2 % of control | –
19 | CS(=O)(=O)CCNCCc1[nH]c(=S)n2c1C[C@H](c1c(F)ccc(Br)c1F)C2 [Example 182, (R)-6-(3-bromo-2,6-difluorophenyl)-1-(2-((2-(methylsulfonyl)ethyl)amino)ethyl)-2,5,6,7-tetrahydro-3H-pyrrolo[1,2-c]imidazole-3-thione] | 94.6 % of control | 71.0 % of control | –
20 | Cn1c(CC(N)=O)c2n(c1=S)C[C@@]1(c3cc(Cl)ccc3F)C[C@@H]21 [Example 282, 2-((5aS,6aR)-5a-(5-chloro-2-fluorophenyl)-2-methyl-3-thioxo-2,3,5,5a,6,6a-hexahydrocyclopropa[3,4]pyrrolo[1,2-c]imidazol-1-yl)acetamide] | 99.6 % of control | 75.4 % of control | –
